Assay results: patent US20240376099A1, “COMPOUNDS AND COMPOSITIONS AS INHIBITORS OF ENDOSOMAL TOLL-LIKE RECEPTORS” (Novartis AG, priority 2016, published 2024)

Target: T1, TLR7 (Homo sapiens, UniProt Q9NYK1)
T1 construct: Fresh blood was collected from normal human donors; endogenous in cells; host or cells: human PBMCs from fresh donor blood
T1 sequence (Q9NYK1 27-1049): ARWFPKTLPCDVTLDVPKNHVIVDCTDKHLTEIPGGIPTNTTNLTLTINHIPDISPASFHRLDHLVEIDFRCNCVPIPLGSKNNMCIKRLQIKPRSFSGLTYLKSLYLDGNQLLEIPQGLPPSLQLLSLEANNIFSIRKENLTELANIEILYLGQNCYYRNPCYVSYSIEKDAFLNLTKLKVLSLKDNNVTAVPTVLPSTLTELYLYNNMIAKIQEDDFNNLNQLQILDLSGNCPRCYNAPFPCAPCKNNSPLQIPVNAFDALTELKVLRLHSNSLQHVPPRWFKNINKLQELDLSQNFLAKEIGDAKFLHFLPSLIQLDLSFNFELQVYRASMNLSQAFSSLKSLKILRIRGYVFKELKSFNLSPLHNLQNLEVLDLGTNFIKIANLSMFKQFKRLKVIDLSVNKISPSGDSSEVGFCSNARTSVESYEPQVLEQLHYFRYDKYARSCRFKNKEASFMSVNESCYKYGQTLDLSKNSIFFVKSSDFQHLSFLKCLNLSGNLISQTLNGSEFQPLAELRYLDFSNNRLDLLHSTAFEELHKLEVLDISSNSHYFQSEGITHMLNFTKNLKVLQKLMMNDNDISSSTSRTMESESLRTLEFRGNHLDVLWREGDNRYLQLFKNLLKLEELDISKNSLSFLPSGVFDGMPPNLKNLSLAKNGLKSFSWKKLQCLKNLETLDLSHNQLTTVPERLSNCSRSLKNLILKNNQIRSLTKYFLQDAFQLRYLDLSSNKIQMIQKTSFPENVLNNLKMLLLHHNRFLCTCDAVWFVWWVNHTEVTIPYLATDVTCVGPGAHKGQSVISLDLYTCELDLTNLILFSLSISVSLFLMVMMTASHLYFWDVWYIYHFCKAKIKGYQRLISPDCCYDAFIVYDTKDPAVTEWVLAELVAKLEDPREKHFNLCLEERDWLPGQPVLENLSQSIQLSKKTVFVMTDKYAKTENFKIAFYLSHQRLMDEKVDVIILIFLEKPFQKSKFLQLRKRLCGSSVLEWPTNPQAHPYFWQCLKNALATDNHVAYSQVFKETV
Test: huPBMC TLR7 Antagonist IFNα Assay
Format: cell-based
Conditions: human PBMCs stimulated with ssRNA40 10 μg/mL (DOTAP), 14-16 hrs; IFNα2b AlphaLISA read-out
How it was run: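 Human PBMCs from fresh donor blood (150,000 cells/well) stimulated 14–16 h at 37 °C with DOTAP-complexed ssRNA40 (final 1 μg/ml for TLR8, 10 μg/mL for TLR7) or ODN2216 (final 0.3 μM, TLR9), 0.25% DMSO, ten-point 1/3 compound dilutions. Supernatant IL-6 read by HTRF (TLR8); IFNα by IFNα2b AlphaLISA (TLR7/TLR9).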

Row | SMILES | IC50
1 | Cc1nn(CC23CCC(N4CCCC4)(CC2)CC3)c2c1CN(c1ccnc(-c3ccccc3)c1)CC2 [compound 85, 3-methyl-5-(2-phenylpyridin-4-yl)-1-((4-(pyrrolidin-1-yl)bicyclo[2.2.2]octan-1-yl)methyl)-4,5,6,7-tetrahydro-1H-pyrazolo[4,3-c]pyridine] | 46 nM
2 | Cc1cc(N2CCc3c(c(C)nn3CC34CCC(N5CCCC5)(CC3)CC4)C2)c2ccncc2n1 [compound 86, 2-methyl-4-(3-methyl-1-((4-(pyrrolidin-1-yl)bicyclo[2.2.2]octan-1-yl)methyl)-6,7-dihydro-1H-pyrazolo[4,3-c]pyridin-5(4H)-yl)-1,7-naphthyridine] | 81 nM
3 | Cc1cc(N2CCc3c(c(C)nn3CCC34CCC(N)(CC3)CC4)C2)c2cnn(C)c2n1 [compound 91, 4-(2-(5-(1,6-dimethyl-1H-pyrazolo[3,4-b]pyridin-4-yl)-3-methyl-4,5,6,7-tetrahydro-1H-pyrazolo[4,3-c]pyridin-1-yl)ethyl)bicyclo[2.2.2]octan-1-amine] | 22 nM
4 | Cc1cc(N2CCc3c(c(C)nn3CC34CCC(N)(CC3)CC4)C2)c2ccnc(C)c2n1 [compound 92, 4-((5-(2,8-dimethyl-1,7-naphthyridin-4-yl)-3-methyl-4,5,6,7-tetrahydro-1H-pyrazolo[4,3-c]pyridin-1-yl)methyl)bicyclo[2.2.2]octan-1-amine] | 160 nM

The next lines start with the values.

Row | IC50 | SMILES
5 | 11 nM | Cc1cc(N2CCc3c(c(C)nn3CC34CCC(N5CC[C@H](O)C5)(CC3)CC4)C2)c2cnn(C)c2n1 [compound 75, (S)-1-(4-((5-(1,6-dimethyl-1H-pyrazolo[3,4-b]pyridin-4-yl)-3-methyl-4,5,6,7-tetrahydro-1H-pyrazolo[4,3-c]pyridin-1-yl)methyl)bicyclo[2.2.2]octan-1-yl)pyrrolidin-3-ol]
6 | 4 nM | Cc1cc(N2CCc3c(c(C)nn3CC34CCC(N(C)C5CCC5)(CC3)CC4)C2)c2cnn(C)c2n1 [compound 79, N-cyclobutyl-4-((5-(1,6-dimethyl-1H-pyrazolo[3,4-b]pyridin-4-yl)-3-methyl-4,5,6,7-tetrahydro-1H-pyrazolo[4,3-c]pyridin-1-yl)methyl)-N-methylbicyclo[2.2.2]octan-1-amine]
7 | 2 nM | Cc1cc(N2CCc3c(c(C)nn3CC34CCC(N5C[C@H](O)[C@@H](O)C5)(CC3)CC4)C2)c2cnn(C)c2n1 [compound 80, (3S,4S)-1-(4-((5-(1,6-dimethyl-1H-pyrazolo[3,4-b]pyridin-4-yl)-3-methyl-4,5,6,7-tetrahydro-1H-pyrazolo[4,3-c]pyridin-1-yl)methyl)bicyclo[2.2.2]octan-1-yl)pyrrolidine-3,4-diol]
